Laboratory results as given in patent publication US20120172397A1, “HEXAHYDROCYCLOPENTA[f]INDAZOLE 5-YL ETHANOLS AND DERIVATIVES THEREOF AS SELECTIVE GLUCOCORTICOID RECEPTOR MODULATORS” (MERCK SHARP & DOHME CORP., priority 2009, published 2012).
Like-named read-outs stand apart in the source and are kept apart here.

Columns and labels:
[1] = test system: human GR (TNFα promoter β-lactamase reporter, U937 cells); assay: Transrepression Assay (GITAR), TNFα-β-lactamase reporter in U937 cells; assay type: cell-based; conditions: for EC50: TNFα-β-lactamase reporter, PMA/LPS stimulated, read-out: Transrepression U937 Cells GITAR IP (inflection point); for Transrepression U937 Cells GITAR Emax / Emax: activity repressed by 100 nM dexamethasone set as 100%
From the text: This assay assesses the ability of test compounds to control transcription from the TNFα-β-lactamase reporter gene in U937 cells, a human myelomonocytic leukemia cell line that naturally expresses the human GR. The assay measures compound dependent-repression of the TNFa promoter linked to a reporter gene.
The human U937cells that had been stablely transfected with the TNF-α promoter driving β-lactamase are used for this assay. U937 cells contain an endogenous glucocorticoid receptor (GR). Cells are maintained in RPMI 1640 Growth medium (Gibco Cat#11875-093) containing 25 mM HEPES, 10% FBS, 2 mM L-Glutamine, 1 mM Sodium pyruvate, 25 μg/ml Gentamicin (Gibco Cat#15710-064), 1:1000 2-Mercaptoethanol (Gibco Cat#21985-023) and 0.8 mg/ml G418 (Gibco Cat#10131-027). The density of the cells in the flask needs to be about 1×106−3×10^6/ml at the time of harvest. Usually, the cells are split to 1.2˜1.4×10^5/ml (1:10) 3 days prior to the assay. 50,000 cells/well are plated in 96 well black-walled plates the day of assay. Test compounds are added 10 μL/well, and cells are incubated at 37° C. for 30-45 min. For assaying compounds, first dilute 1:10 in DMSO to make 1 mM, then further dilute 1:100 in medium to make 10 × stock prior to adding to the cells. Add 50 ng/ml PMA (Sigma, cat# P8139) 10 μL/well to a final concentration 5 ng/ml, and 1 μg/ml LPS (Sigma, cat# L4130) 10 μL/well to a final concentration 100 ng/ml. Incubate cells at […] overnight for˜18 hr. PMA is stored frozen as 100 μg/ml stock in DMSO. Dilute 1:10 in DMSO for a working stock of 10 μg/ml and store at −20° C. For assaying, dilute the 10 μg/ml working stock 1:200 in medium to make a 10× solution (50 ng/ml). Store frozen LPS at 1 mg/ml in PBS, dilute 1:1000 in medium to make 10× (1 μg/ml) for the assay. Add 6× loading buffer (CCF2-AM) 20 μL/well, and incubate at room temperature for 70˜90 min. […] The activity repressed by 100 nM dexamethasone alone is set as 100% activity.

[2] = test system: human GR (MMTV-LUC reporter gene, A549 cells); assay: Trans-Activation Modulation of Glucocorticoid Receptor Assay (GRAMMER), MMTV-LUC reporter in A549 cells; assay type: cell-based; conditions: for Transactivation A549 Cells GRAMMER Emax / Emax: Emax relative to the activity obtained with 300 nM dexamethasone; for EC50: MMTV-LUC reporter, agonist mode, read-out: Transactivation A549 Cells GRAMMER IP (inflection point); for Emax: read-out: Transactivation A549 Cells GRAMMER Emax
From the text: Trans-Activation Modulation of Glucocorticoid Receptor Assay
This assay assesses the ability of test compounds to control transcription from the MMTV-LUC reporter gene in lung adenocarcinoma A549 cells or HeLa cells, a human […] cell line that naturally expresses the human GR. The assay measures induction of a modified MMTV LTR/promoter linked to the LUC reporter gene.
The routine transient assay consists of plating 7,000-25,000 cells/well of a white, clear-bottom 96-well plate. Alternatively, 384-well plates can be used at a cell concentration of 10,000 /well. The media that the cells are plated in is “exponential growth medium” which consists of phenol red-free RPMI1640 containing 10%FBS, 4 mM L-glutamine, 20 mM HEPES, 10 μg/mL human insulin, and 20 μg/mL gentamicin. Incubator conditions are 37° C. and 5% CO2. The transfection is done in batch mode. The cells are trypsinized and counted to the right cell number in the proper amount of fresh media. It is then gently mixed with the FuGene6/DNA mix and plated onto the 96 or 384-well plate, all the wells receive 100 μL or 40 μL, respectively, of medium +lipid/DNA complex then incubated 37° C. overnight. The transfection cocktail consists of serum-free OptiMEM, FuGene6 reagent and DNA. The manufacturer's (Roche Biochemical) protocol for cocktail setup is as follows: The lipid to DNA ratio is approximately 2.5:1 and the incubation time is 20 min at room temperature. Sixteen to 24 hours after transfection, the cells are treated with dexamethasone to a final concentration of 10 nM as well as the compound of interest, such that final DMSO (vehicle) concentration is equal to or less than 1%. Each plate also contains samples that are treated with 10 nM dexamethasone alone, which is used as the 100% activity control. The cells are exposed to the compounds for 24 hours. After 24 hours, the cells are lysed by a Promega cell culture lysis buffer for approximately 30 min and then the luciferase activity in the extracts is assayed in the 96-well format luminometer. In 384-well format, Steady-Glo (Promega) or Steady-Lite (PerkinElmer) can be used by adding an equal volume of reagent to the media present in each well. Activity induced by 10 nM dexamethasone alone is set at 100% activity. Antagonist activity is calculated by determining the decrease in dexamethasone-induced activity in response to compound treatment relative to samples that were treated with dexamethasone alone. Results are expressed as % inhibition of 10 nM dexamethasone activity or as fold of 10 nM dexamethasone activity. This transactivation assay can be performed in an agonist and antagonist mode to identify these different activities.
Activity of test compounds is calculated as the Emax relative to the activity obtained with 300 nM dexamethasone. Activity of test compounds is calculated as the Emax relative to the activity obtained with 300 nM DEX. The exemplified tissue selective glucocorticoid receptor modulators of the present invention display agonist activity in this assay of greater than 5% and less than 100%, and maximal transactivation activity less then maximal transrepression activity. […]

[3] = Homo sapiens, U-937, U937 cells

In the case of `COc1cccc(C(O)C[C@H]2CCC3=Cc4c(cnn4-c4cccnc4)C[C@@]32C)c1` (single isomer, unassigned) [Example 4a], the EC50 ([1]; U937 cells) is reported as 114 nM, the “Transrepression U937 Cells GITAR Emax” value ([1]; U937 cells) is reported as 74.8% and the “Transactivation A549 Cells GRAMMER Emax” value ([2]; A549 cells) is reported as 47.7%. For the same molecule, the EC50 ([2]; Homo sapiens, A549, A549 cells) was 472 nM.
With `C[C@]12Cc3cnn(-c4cccnc4)c3C=C1CC[C@@H]2CC(O)c1ccccn1` (single isomer, unassigned) [Example 6a] the Emax [1, 3] was 16.6%, the EC50 ([1]; U937 cells) was 558 nM and the EC50 ([2]; Homo sapiens, A549, A549 cells) was 1170 nM. For the same molecule, the Emax ([2]; Homo sapiens, A549, A549 cells) was 1.6%.
`CC(O)(C[C@H]1CCC2=Cc3c(cnn3-c3cccnc3)C[C@@]21C)c1ccccc1` (single isomer, unassigned) [Example 7a] gave an Emax [1, 3] of 84.2%, an EC50 ([1]; U937 cells) of 78.7 nM and an EC50 ([2]; A549 cells) of 74.3 nM. The “Transactivation A549 Cells GRAMMER Emax” value ([2]; A549 cells) was 53.1%.
In the case of `CC(O)(C[C@H]1CCC2=Cc3c(cnn3-c3cccnc3)C[C@@]21C)c1ccccc1` (single isomer, unassigned) [Example 7b], the EC50 ([1]; U937 cells) is reported as 393 nM, the “Transrepression U937 Cells GITAR Emax” value ([1]; U937 cells) is reported as 65.9% and the EC50 ([2]; A549 cells) is reported as 316 nM. The “Transactivation A549 Cells GRAMMER Emax” value ([2]; A549 cells) was 20.0%.
For `C[C@]12Cc3cnn(-c4cccnc4)c3C=C1CC[C@@H]2CC(O)c1ccccn1` (single isomer, unassigned) [Example 6b], the EC50 ([1]; U937 cells) was 1380 nM, the “Transrepression U937 Cells GITAR Emax” value ([1]; U937 cells) was 30.0% and the EC50 ([2]; A549 cells) was 1430 nM. The “Transactivation A549 Cells GRAMMER Emax” value ([2]; A549 cells) was 2.2%.
With `COc1cccc(C(O)C[C@H]2CCC3=Cc4c(cnn4-c4cccnc4)C[C@@]32C)c1` (single isomer, unassigned) [Example 4b] the EC50 ([1]; U937 cells) was 548 nM, the “Transrepression U937 Cells GITAR Emax” value ([1]; U937 cells) was 47.0% and the EC50 ([2]; A549 cells) was 797 nM. The “Transactivation A549 Cells GRAMMER Emax” value ([2]; A549 cells) was 15.3%.
`COc1ccc(C(O)C[C@H]2CCC3=Cc4c(cnn4-c4cccnc4)C[C@@]32C)cn1` (stereo partly drawn) [Example 3, 1-(6-methoxypyridin-3-yl)-2-[(4αR,5R)-4α-methyl-1-(pyridin-3-yl)-1,4,4α,5,6,7-hexahydrocyclopenta[f]indazol-5-yl] ethanol] showed an EC50 [1, 3] of 200 nM, an Emax [1, 3] of 85.2% and an EC50 ([2]; Homo sapiens, A549, A549 cells) of 160 nM. It also gave an Emax ([2]; Homo sapiens, A549, A549 cells) of 101%.
`COc1ccccc1C(O)C[C@H]1CCC2=Cc3c(cnn3-c3cccnc3)C[C@@]21C` (single isomer, unassigned) [Example 2a] was tested, and the EC50 ([1]; U937 cells) was 229 nM, the “Transrepression U937 Cells GITAR Emax” value ([1]; U937 cells) was 79.5% and the EC50 ([2]; A549 cells) was 301 nM. The “Transactivation A549 Cells GRAMMER Emax” value ([2]; A549 cells) was 68.5%.
`COc1ccccc1C(O)C[C@H]1CCC2=Cc3c(cnn3-c3cccnc3)C[C@@]21C` (single isomer, unassigned) [Example 2b] gave an Emax [1, 3] of 73.9%, an EC50 ([1]; U937 cells) of 1160 nM and an EC50 ([2]; A549 cells) of 812 nM. The “Transactivation A549 Cells GRAMMER Emax” value ([2]; A549 cells) was 21.5%.
With `C[C@]12Cc3cnn(-c4cccnc4)c3C=C1CC[C@@H]2CC(O)c1ccccc1` (single isomer, unassigned) [Example 1a] the EC50 ([1]; U937 cells) was 277 nM, the “Transrepression U937 Cells GITAR Emax” value ([1]; U937 cells) was 75.4% and the EC50 ([2]; A549 cells) was 343 nM. For the same molecule, the “Transactivation A549 Cells GRAMMER Emax” value ([2]; A549 cells) was 29.7%.
`COc1ccc(C(O)C[C@H]2CCC3=Cc4c(cnn4-c4cccnc4)C[C@@]32C)cc1` (stereo partly drawn) [Example 5, 1-(4-methoxyphenyl)-2-[(4αR,5R)-4α-methyl-1-(pyridin-3-yl)-1,4,4α,5,6,7-hexahydrocyclopenta[f]indazol-5-yl] ethanol] was tested, and the EC50 [1, 3] was 20.7 nM, the Emax [1, 3] was 87.3% and the EC50 ([2]; Homo sapiens, A549, A549 cells) was 53.4 nM. It also gave an Emax ([2]; Homo sapiens, A549, A549 cells) of 90.7%.
`C[C@]12Cc3cnn(-c4cccnc4)c3C=C1CC[C@@H]2CC(O)c1ccccc1` (single isomer, unassigned) [Example 1b] was tested, and the EC50 ([1]; U937 cells) was 1720 nM, the “Transrepression U937 Cells GITAR Emax” value ([1]; U937 cells) was 49.3% and the EC50 ([2]; A549 cells) was 811 nM. For the same molecule, the “Transactivation A549 Cells GRAMMER Emax” value ([2]; A549 cells) was 8.5%.
